Here are results for 30 compounds from patent US9896440B2, “Aryl substituted heterocyclyl sulfones” (GRÜNENTHAL GMBH, priority 2014, dated 2018).

SMILES strings stand for the structures.

T1 sequence (Q00975 whole entry): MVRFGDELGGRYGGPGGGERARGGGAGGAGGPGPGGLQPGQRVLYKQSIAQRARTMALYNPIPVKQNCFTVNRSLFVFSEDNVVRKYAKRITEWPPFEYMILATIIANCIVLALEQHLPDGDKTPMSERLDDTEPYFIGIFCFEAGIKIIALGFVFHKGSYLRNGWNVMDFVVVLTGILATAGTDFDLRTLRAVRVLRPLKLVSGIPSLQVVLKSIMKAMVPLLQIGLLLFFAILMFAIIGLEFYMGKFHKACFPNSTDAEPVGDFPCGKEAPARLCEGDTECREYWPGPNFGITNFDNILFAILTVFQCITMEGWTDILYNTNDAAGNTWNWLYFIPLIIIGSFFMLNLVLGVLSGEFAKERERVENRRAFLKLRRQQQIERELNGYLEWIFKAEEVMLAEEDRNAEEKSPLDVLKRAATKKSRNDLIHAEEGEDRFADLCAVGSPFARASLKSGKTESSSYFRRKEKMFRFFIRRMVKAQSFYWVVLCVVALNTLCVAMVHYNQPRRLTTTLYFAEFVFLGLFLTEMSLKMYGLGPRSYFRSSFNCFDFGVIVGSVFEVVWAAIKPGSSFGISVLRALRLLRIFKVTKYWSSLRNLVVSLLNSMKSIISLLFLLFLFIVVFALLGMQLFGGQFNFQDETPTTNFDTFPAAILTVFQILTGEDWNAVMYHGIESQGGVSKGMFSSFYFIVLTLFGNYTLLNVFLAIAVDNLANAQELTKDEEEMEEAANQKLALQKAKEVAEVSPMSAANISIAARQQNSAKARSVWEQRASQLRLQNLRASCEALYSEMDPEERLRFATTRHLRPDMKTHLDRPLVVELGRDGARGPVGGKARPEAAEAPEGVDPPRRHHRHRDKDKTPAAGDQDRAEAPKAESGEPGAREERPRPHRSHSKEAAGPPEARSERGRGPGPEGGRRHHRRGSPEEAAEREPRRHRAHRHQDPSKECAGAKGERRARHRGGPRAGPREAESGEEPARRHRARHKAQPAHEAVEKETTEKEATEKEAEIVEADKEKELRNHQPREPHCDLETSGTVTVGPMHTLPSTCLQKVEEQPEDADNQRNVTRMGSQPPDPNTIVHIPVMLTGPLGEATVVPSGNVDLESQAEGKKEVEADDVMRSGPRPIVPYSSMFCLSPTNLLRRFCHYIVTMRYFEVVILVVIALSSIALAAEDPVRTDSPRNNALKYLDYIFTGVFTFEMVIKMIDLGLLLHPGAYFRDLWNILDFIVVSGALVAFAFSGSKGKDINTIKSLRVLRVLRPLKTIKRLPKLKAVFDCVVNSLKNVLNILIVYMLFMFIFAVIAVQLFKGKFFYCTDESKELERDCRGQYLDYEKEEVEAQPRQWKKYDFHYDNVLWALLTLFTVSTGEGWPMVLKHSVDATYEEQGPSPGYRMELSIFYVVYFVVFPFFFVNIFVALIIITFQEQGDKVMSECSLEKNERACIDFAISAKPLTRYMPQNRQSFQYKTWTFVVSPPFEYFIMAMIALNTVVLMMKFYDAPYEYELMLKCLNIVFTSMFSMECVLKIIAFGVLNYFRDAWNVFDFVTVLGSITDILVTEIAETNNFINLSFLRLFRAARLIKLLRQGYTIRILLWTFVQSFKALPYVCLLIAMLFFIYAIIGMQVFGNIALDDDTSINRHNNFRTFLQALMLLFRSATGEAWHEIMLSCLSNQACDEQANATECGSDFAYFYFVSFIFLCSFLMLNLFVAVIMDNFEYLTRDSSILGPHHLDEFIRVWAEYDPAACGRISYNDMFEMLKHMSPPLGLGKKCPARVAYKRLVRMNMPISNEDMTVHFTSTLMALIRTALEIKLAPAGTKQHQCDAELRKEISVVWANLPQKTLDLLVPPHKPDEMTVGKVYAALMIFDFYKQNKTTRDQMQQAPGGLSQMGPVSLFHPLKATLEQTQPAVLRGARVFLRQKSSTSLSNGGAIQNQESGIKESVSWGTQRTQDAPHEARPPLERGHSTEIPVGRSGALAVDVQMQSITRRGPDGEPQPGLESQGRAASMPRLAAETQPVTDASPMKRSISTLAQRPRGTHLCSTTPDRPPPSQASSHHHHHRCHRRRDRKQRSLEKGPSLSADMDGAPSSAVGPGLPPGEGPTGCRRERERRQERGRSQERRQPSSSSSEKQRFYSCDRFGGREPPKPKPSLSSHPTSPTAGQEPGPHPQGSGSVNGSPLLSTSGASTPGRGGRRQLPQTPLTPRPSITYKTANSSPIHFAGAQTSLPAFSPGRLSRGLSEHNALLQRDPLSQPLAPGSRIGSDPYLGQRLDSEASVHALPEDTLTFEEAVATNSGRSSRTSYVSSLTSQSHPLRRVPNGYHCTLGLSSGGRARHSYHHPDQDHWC

One experiment addresses T1, Human CaV2.2 channels (Homo sapiens, UniProt Q00975).
T1 construct: expressed in transfected cells; Kir2.3 also stably co-expressed
Kind of experiment: Fluorescence assay for CaV2.2 channels using potassium depolarization to induce channel opening (FLIPR, Fluo 4). The experiment is classed as cell-based. The settings on record: 3 μM test compound, 30 mM KCl assay buffer (inactivated channel state), HEK293 cells. An outline of the steps:
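HEK293 cells stably co-expressing human CaV2.2 with α2δ and β subunits plus Kir2.3, Fluo-4 loaded; compounds preincubated 15 min at 25 °C in 1 mM or 30 mM KCl buffer (inactivated state), pH 7.4. Depolarized by KCl addition; baseline-normalized peak fluorescence (ex 480/em 535 nm) gave inhibition.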
For `CC1(S(=O)(=O)c2cccc(C(F)(F)F)c2)CCOC(c2ccc(C#N)cc2S(C)(=O)=O)C1` (stereo not drawn) [SC-252, 3-Methylsulfonyl-4-[4-methyl-4-[[3-(trifluoromethyl)phenyl]sulfonyl]-tetrahydro-pyran-2-yl]-benzonitrile], the “Activity Category: %-Inhib (CaV2.2) @3 μM @30 mM KCl” value (shortened to “Activity Category: %-Inhib”) was “B (%-Inhibition >75% up to ≦95%)”.

As to `Cc1cc(S(C)(=O)=O)ccc1C1CC(C)(S(=O)(=O)c2cccc(C(F)(F)F)c2)CCO1` (stereo not drawn) [SC-254, 4-Methyl-2-(2-methyl-4-methylsulfonyl-phenyl)-4-[[3-(trifluoromethyl)phenyl]sulfonyl]-tetrahydro-pyran], the “Activity Category: %-Inhib” value is reported as “A (%-Inhibition >95%)”.

Regarding `CC1(S(=O)(=O)c2cccc(C(F)(F)F)c2)CCOC(c2ccc(C#N)c(S(C)(=O)=O)c2)C1` (stereo not drawn) [SC-262, 2-Methylsulfonyl-4-[4-methyl-4-[[3-(trifluoromethyl)phenyl]sulfonyl]-tetrahydro-pyran-2-yl]-benzonitrile], the “Activity Category: %-Inhib” value is recorded as “B (%-Inhibition >75% up to ≦95%)”. `CC1(S(=O)(=O)c2cccc(OC(F)(F)F)c2)CCOC(c2ccc(S(C)(=O)=O)c(F)c2)C1` (stereo not drawn) [SC-266, 2-(3-Fluoro-4-methylsulfonyl-phenyl)-4-methyl-4-[[3-(trifluoromethyloxy)-phenyl]sulfonyl]-tetrahydro-pyran]: the “Activity Category: %-Inhib” value is reported as “A (%-Inhibition >95%)”.

On to `CC1(S(=O)(=O)c2cccc(C(F)(F)F)c2)CCOC(c2ccc(S(C)(=O)=O)c(C#N)c2)C1` (stereo not drawn) [SC-268, 2-Methylsulfonyl-5-[4-methyl-4-[[3-(trifluoromethyl)phenyl]sulfonyl]-tetrahydro-pyran-2-yl]-benzonitrile], for which the “Activity Category: %-Inhib” value is “B (%-Inhibition >75% up to ≦95%)”. For `CC1(S(=O)(=O)c2cccc(C(F)F)c2)CCOC(c2ccc(S(C)(=O)=O)c(F)c2)C1` (stereo not drawn) [SC-269, 4-[[3-(Difluoro-methyl)-phenyl]sulfonyl]-2-(3-fluoro-4-methylsulfonyl-phenyl)-4-methyl-tetrahydro-pyran], the “Activity Category: %-Inhib” value was “C (%-Inhibition >40% up to ≦75%)”. In the case of `CC1(S(=O)(=O)c2cccc(C(F)F)c2)CCOC(c2ccc(S(C)(=O)=O)c(F)c2)C1` (stereo not drawn) [SC-270, 4-[[3-(Difluoro-methyl)-phenyl]sulfonyl]-2-(3-fluoro-4-methylsulfonyl-phenyl)-4-methyl-tetrahydro-pyran], the “Activity Category: %-Inhib” value is listed as “B (%-Inhibition >75% up to ≦95%)”. Same read-out and setting: for `CC1(S(=O)(=O)c2cccc(C(F)(F)F)c2)CCOC(c2ccc(S(C)(=O)=O)cc2C#N)C1` (stereo not drawn) [SC-276, 5-Methylsulfonyl-2-[4-methyl-4-[[3-(trifluoromethyl)phenyl]sulfonyl]-tetrahydro-pyran-2-yl]-benzonitrile] the value was “A (%-Inhibition >95%)”; for `CC1(S(=O)(=O)c2cccc(C(F)(F)F)c2)CCOC(c2cc(S(C)(=O)=O)ccc2C2CC2)C1` (stereo not drawn) [SC-278, 2-(2-Cyclopropyl-5-methylsulfonyl-phenyl)-4-methyl-4-[[3-(trifluoromethyl)phenyl]sulfonyl]-tetrahydro-pyran], “B (%-Inhibition >75% up to ≦95%)”. The same measure, in the same setting: the same measure for `Cc1nc2cc(C3CC(C)(S(=O)(=O)c4cccc(C(F)(F)F)c4)CCO3)ccc2o1` (stereo not drawn) [SC-280, 2-Methyl-5-[4-methyl-4-[[3-(trifluoromethyl)phenyl]sulfonyl]-tetrahydro-pyran-2-yl]-benzooxazole]: “A (%-Inhibition >95%)”.

As to `C[S+]([O-])c1ccc(C2CC(C)(S(=O)(=O)c3cccc(C(F)(F)F)c3)CCO2)c(F)c1` (stereo not drawn) [SC-281, 2-[2-Fluoro-4-(methylsulfinyl)-phenyl]-4-methyl-4-[[3-(trifluoromethyl)phenyl]sulfonyl]-tetrahydro-pyran], the “Activity Category: %-Inhib” value was “B (%-Inhibition >75% up to ≦95%)”. Same read-out and setting: for `C[S+]([O-])c1ccc(C2CC(C)(S(=O)(=O)c3cccc(C(F)(F)F)c3)CCO2)c(F)c1` (stereo not drawn) [SC-282, 2-[2-Fluoro-4-(methylsulfinyl)-phenyl]-4-methyl-4-[[3-(trifluoromethyl)phenyl]sulfonyl]-tetrahydro-pyran] the value was “B (%-Inhibition >75% up to ≦95%)”; for `C[S+]([O-])c1ccc(C2CC(C)(S(=O)(=O)c3cccc(C(F)(F)F)c3)CCO2)c(F)c1` (stereo not drawn) [SC-283, 2-[2-Fluoro-4-(methylsulfinyl)-phenyl]-4-methyl-4-[[3-(trifluoromethyl)phenyl]sulfonyl]-tetrahydro-pyran], “B (%-Inhibition >75% up to ≦95%)”.

Still in this experiment, the particulars now being: HEK293, 3 μM test compound, 30 mM KCl assay buffer (inactivated channel state), HEK293 cells; read-out: Activity Category: %-Inhib (CaV2.2) @3 μM @30 mM KCl.
In the case of `CC1(S(=O)(=O)c2cccc(C(F)(F)F)n2)CCOC(c2ccc(S(C)(=O)=O)c(F)c2)C1` (stereo not drawn) [SC-245, 2-[[2-(3-Fluoro-4-methylsulfonyl-phenyl)-4-methyl-tetrahydro-pyran-4-yl]sulfonyl]-6-(trifluoromethyl)-pyridine], the inhibition at 3 µM is 40 to 75%. For the compound `CC1(S(=O)(=O)c2cccc(C(F)(F)F)c2)CCOC(c2cc(S(C)(=O)=O)ccc2Cl)C1` (stereo not drawn) [SC-247, 2-(2-Chloro-5-methylsulfonyl-phenyl)-4-methyl-4-[[3-(trifluoromethyl)phenyl]sulfonyl]-tetrahydro-pyran], the inhibition at 3 µM was above 95%. Still for that read-out and setting: for `CC1(S(=O)(=O)c2cccc(C(F)(F)F)c2)CCOC(c2ccc(C(F)(F)F)c(S(C)(=O)=O)c2)C1` (stereo not drawn) [SC-249, 4-Methyl-2-[3-methylsulfonyl-4-(trifluoromethyl)-phenyl]-4-[[3-(trifluoromethyl)phenyl]sulfonyl]-tetrahydro-pyran] the value was above 95%; for `CC1(S(=O)(=O)c2cccc(C(F)(F)F)c2)CCOC(c2ccc(C#N)cc2S(C)(=O)=O)C1` (stereo not drawn) [SC-251, 3-Methylsulfonyl-4-[4-methyl-4-[[3-(trifluoromethyl)phenyl]sulfonyl]-tetrahydro-pyran-2-yl]-benzonitrile], above 95%.

Take `Cc1cc(S(C)(=O)=O)ccc1C1CC(C)(S(=O)(=O)c2cccc(C(F)(F)F)c2)CCO1` (stereo not drawn) [SC-253, 4-Methyl-2-(2-methyl-4-methylsulfonyl-phenyl)-4-[[3-(trifluoromethyl)phenyl]sulfonyl]-tetrahydro-pyran]: the inhibition at 3 µM was in the range of 75 to 95%. On the same count and under the same terms, for `CC1(S(=O)(=O)c2cccc(C(F)(F)F)c2)CCOC(c2ccc(S(C)(=O)=O)cc2C(F)(F)F)C1` (stereo not drawn) [SC-255, 4-Methyl-2-[4-methylsulfonyl-2-(trifluoromethyl)-phenyl]-4-[[3-(trifluoromethyl)phenyl]sulfonyl]-tetrahydro-pyran] the value was above 95%.

For `CC1(S(=O)(=O)c2cccc(C(F)(F)F)c2)CCOC(c2cc(C#N)cc(S(C)(=O)=O)c2)C1` (stereo not drawn) [SC-257, 3-Methylsulfonyl-5-[4-methyl-4-[[3-(trifluoromethyl)phenyl]sulfonyl]-tetrahydro-pyran-2-yl]-benzonitrile], the inhibition at 3 µM fell in the range of 75 to 95%.

Turning to `CC1(S(=O)(=O)c2cccc(C(F)(F)F)c2)CCOC(c2ccc3c(c2)OC(F)(F)O3)C1` (stereo not drawn) [SC-259, 2,2-Difluoro-5-[4-methyl-4-[[3-(trifluoromethyl)phenyl]sulfonyl]-tetrahydro-pyran-2-yl]-1,3-benzodioxole], the inhibition at 3 µM is above 95%. On the same count and under the same terms, for `CC1(S(=O)(=O)c2cccc(C(F)(F)F)c2)CCOC(c2ccc(C#N)c(S(C)(=O)=O)c2)C1` (stereo not drawn) [SC-261, 2-Methylsulfonyl-4-[4-methyl-4-[[3-(trifluoromethyl)phenyl]sulfonyl]-tetrahydro-pyran-2-yl]-benzonitrile] the value was above 95%; for `CC1(S(=O)(=O)c2cccc(C(F)(F)F)c2)CCOC(c2ccc3c(c2)CCO3)C1` (stereo not drawn) [SC-263, 5-[4-Methyl-4-[[3-(trifluoromethyl)phenyl]sulfonyl]-tetrahydro-pyran-2-yl]-2,3-dihydro-benzofuran], above 95%. On to `CC1(S(=O)(=O)c2cccc(OC(F)(F)F)c2)CCOC(c2ccc(S(C)(=O)=O)c(F)c2)C1` (stereo not drawn) [SC-265, 2-(3-Fluoro-4-methylsulfonyl-phenyl)-4-methyl-4-[[3-(trifluoromethyloxy)-phenyl]sulfonyl]-tetrahydro-pyran], for which the inhibition at 3 µM was in the range of 75 to 95%. The same measure, in the same setting: the same measure for `CC1(S(=O)(=O)c2cccc(C(F)(F)F)c2)CCOC(c2ccc(S(C)(=O)=O)c(C#N)c2)C1` (stereo not drawn) [SC-267, 2-Methylsulfonyl-5-[4-methyl-4-[[3-(trifluoromethyl)phenyl]sulfonyl]-tetrahydro-pyran-2-yl]-benzonitrile]: above 95%; for `CC(C)c1cccc(S(=O)(=O)C2(C)CCOC(c3ccc(S(C)(=O)=O)c(F)c3)C2)c1` (stereo not drawn) [SC-271, 2-(3-Fluoro-4-methylsulfonyl-phenyl)-4-[(3-isopropyl-phenyl)sulfonyl]-4-methyl-tetrahydro-pyran]: above 95%; for `CC1(S(=O)(=O)c2cccc(C(F)(F)F)c2)CCOC(c2cc(S(C)(=O)=O)ccc2C#N)C1` (stereo not drawn) [SC-273, 4-Methylsulfonyl-2-[4-methyl-4-[[3-(trifluoromethyl)phenyl]sulfonyl]-tetrahydro-pyran-2-yl]-benzonitrile]: 75 to 95%. For `CC1(S(=O)(=O)c2cccc(C(F)(F)F)c2)CCOC(c2ccc(S(C)(=O)=O)cc2C#N)C1` (stereo not drawn) [SC-275, 5-Methylsulfonyl-2-[4-methyl-4-[[3-(trifluoromethyl)phenyl]sulfonyl]-tetrahydro-pyran-2-yl]-benzonitrile], the inhibition at 3 µM was in the range of 75 to 95%.

Take `CC1(S(=O)(=O)c2cccc(C(F)(F)F)c2)CCOC(c2cc(S(C)(=O)=O)ccc2C2CC2)C1` (stereo not drawn) [SC-277, 2-(2-Cyclopropyl-5-methylsulfonyl-phenyl)-4-methyl-4-[[3-(trifluoromethyl)phenyl]sulfonyl]-tetrahydro-pyran]: the inhibition at 3 µM was above 95%.

Regarding `Cc1nc2cc(C3CC(C)(S(=O)(=O)c4cccc(C(F)(F)F)c4)CCO3)ccc2o1` (stereo not drawn) [SC-279, 2-Methyl-5-[4-methyl-4-[[3-(trifluoromethyl)phenyl]sulfonyl]-tetrahydro-pyran-2-yl]-benzooxazole], the inhibition at 3 µM is 75 to 95%.
